Experiments:
[1] = test system: OPN; experiment: Quantitative IHC of cerebral OPN expression in ADtg mice; type: in vivo, mouse
Protocol: ADtg mice (10 months old) received subcutaneous injections of GA [also known as Cop-1 and Copaxone®; 100 μg in phosphate-buffered saline (PBS)] or PBS alone (control group) twice a week for 1 week and then once a week for 8 weeks. For evaluation of innate immune infiltration to the brain by flow cytometry, 10-month-old ADtg mice received subcutaneous injections of GA ([…] in PBS) or PBS alone twice a week for 1 week and then once a week for 3 weeks. At the end of the study, all mice were anaesthetized and then perfused with ice-cold PBS with 0.5 mM EDTA, after which their organs were collected and analyzed or fixed in 2.5% paraformaldehyde (Sigma-Aldrich), and cryoprotected with 30% sucrose for further histological analysis. CD115^+ monocytes from mice donors were isolated as previously reported (Koronyo et al., Brain: a journal of neurology 2015,138:2399-2422). […] For microscopic analysis, we used a Carl Zeiss Axio Imager Z1 fluorescence microscope equipped with ApoTome (Carl Zeiss MicroImaging, Inc.). […] The number and area (μm^2) of OPN+ cells, Iba1^+CD45^hi cells, GFAP^+ cells, Thio-S^+ amyloid-βplaques and 4G8^+ amyloid-βplaques were determined by examining four to six coronal sections per mouse at 150-μm intervals over an area covering both the hippocampal and cortical (including entorhinal and cingulate cortex) regions. […]

[2] = test system: MΦ^BM; experiment: Macrophage cell length measurement; type: cell-based, mouse; conditions: GA treatment (FIG. 16A-16B)
Protocol: A set of three Stealth OPN siRNAs made up of 25-bp duplex oligoribonucleotides each were used with sequences corresponding to the sense and antisense strands of OPN (Invitrogen). Equal amounts (100 nM each) of siRNAs were mixed and diluted in OptiMEM (Gibco) to finalconcentration of 100nmol/L, then transiently transfected into MΦ^BM using Lipofectamine® RNAiMAX Transfection Reagent (Invitrogen), per manufacturer's protocol. Control macrophages were transfected with Stealth RNAi™ siRNA Negative Control. MΦ^BM were incubated for 48 hours after transfection, and were used for subsequent experiments.
The long and short axes of cells were manually measured in μm from microscopic images (McWhorter et al., Proceedings of the National Academy of Sciences of the U.S. Pat. No. 2,013,110:17253-17258) using length tools in the Axiovision Rel. 4.8 software package. At least 100 cells were examined in each experiment where individual cells were assayed by microscopy.
Macrophages can acquire distinct phenotypes and biological functions depending on their microenvironment. Past studies reported that OPN promotes macrophages to switch to the anti-inflammatory M2 phenotype. The possible role of OPN in macrophage polarization towards an anti-inflammatory phenotype, which has been associated with elongated cell shape was explored. […]

glatiramer acetate [GA]
cerebral OPN expression in comparison to PBS controls ([1]; quantitative IHC, symptomatic ADtg mice, 2 months treatment (FIG. 11B)): 1.5 times | increase in total OPN expression per Aβ-plaque area ([1]; ratio of total OPN area to plaque area, total brain regions (FIG. 11D)): 2.6 fold | cell length increase [2]: 1.3 fold
